From patent US20090054403A1, “Treatment of Post-Traumatic Stress Disorder” (priority 2007, published 2009)
pIC50: −log10 of the molar value.

Tests used:
nitric oxide synthase = assay: Selected enzyme assay; type: biochemical
Procedure: (§1) The activity of nepicastat at twelve selected enzymes and receptors was determined using established assays. Details of individual receptor radioligand binding assays can be found in Wong et al (1993). Binding data were analyzed by iterative curve-fitting to a four parameter logistic equation. Ki values were calculated from IC50 values using the Cheng-Prusoff equation. Enzyme inhibitory activity was expressed as IC50 (concentration required to produce 50% inhibition of enzyme activity). Male SHRs (15-16 weeks old, Charles River, Wilmington, Mass., USA) were used in the study. On the day of the study, animals were weighed and randomly assigned to be dosed with either vehicle (control) or the appropriate dose of nepicastat (3, 10, 30 or 100 mg.kg^−1, po) or (R)-5-Aminomethyl-1-(5,7-difluoro-1,2,3,4-tetrahydronaphth-2-yl)-2,3-dihydro-2-thioxo-1H-imidazole hydrochloride (30 mg.kg^−1, po) three consecutive times, twelve hours apart. At six hours after the third dose, the rats were anaesthetized with halothane, decapitated and tissues (cerebral cortex, mesenteric artery and left ventricle) were rapidly harvested, weighed, placed in iced perchloric acid (0.4 M), frozen in liquid nitrogen and stored at −70° C. until subsequent analysis. To quantify noradrenaline and dopamine concentrations, tissues were homogenized by brief sonication and centrifuged at 13,000 rpm for 30 minutes at 4° C. The supernatant, spiked with 3,4-dihydroxybenzylamine (internal standard), was assayed for noradrenaline and dopamine by HPLC using electrochemical detection.
(§2) In vitro assay of selected enzymes and neurotransmitter receptors. The activity of 2a at eleven different enzymes was determined using established assays (PanLabs Inc, Foster City, Calif.). The affinity of 2a for thirteen selected receptors was determined by radioligand binding assays using standard filtration techniques and membrane preparations. Binding data were analyzed by iterative curve fitting to a four parameter logistic equation. Ki values were calculated using the Cheng-Prusoff equation.

[1] = target: acyl CoA-cholesterol acyl transferase; assay: Selected enzyme assay; type: biochemical
Procedure: as §1, §2

neutral endopeptidase = target: T1, neutral endopeptidase (Homo sapiens, UniProt P08473); assay: Selected enzyme assay; type: biochemical
T1 construct: PanLabs Inc (assay provider)
T1 sequence (P08473 whole entry, species assumed): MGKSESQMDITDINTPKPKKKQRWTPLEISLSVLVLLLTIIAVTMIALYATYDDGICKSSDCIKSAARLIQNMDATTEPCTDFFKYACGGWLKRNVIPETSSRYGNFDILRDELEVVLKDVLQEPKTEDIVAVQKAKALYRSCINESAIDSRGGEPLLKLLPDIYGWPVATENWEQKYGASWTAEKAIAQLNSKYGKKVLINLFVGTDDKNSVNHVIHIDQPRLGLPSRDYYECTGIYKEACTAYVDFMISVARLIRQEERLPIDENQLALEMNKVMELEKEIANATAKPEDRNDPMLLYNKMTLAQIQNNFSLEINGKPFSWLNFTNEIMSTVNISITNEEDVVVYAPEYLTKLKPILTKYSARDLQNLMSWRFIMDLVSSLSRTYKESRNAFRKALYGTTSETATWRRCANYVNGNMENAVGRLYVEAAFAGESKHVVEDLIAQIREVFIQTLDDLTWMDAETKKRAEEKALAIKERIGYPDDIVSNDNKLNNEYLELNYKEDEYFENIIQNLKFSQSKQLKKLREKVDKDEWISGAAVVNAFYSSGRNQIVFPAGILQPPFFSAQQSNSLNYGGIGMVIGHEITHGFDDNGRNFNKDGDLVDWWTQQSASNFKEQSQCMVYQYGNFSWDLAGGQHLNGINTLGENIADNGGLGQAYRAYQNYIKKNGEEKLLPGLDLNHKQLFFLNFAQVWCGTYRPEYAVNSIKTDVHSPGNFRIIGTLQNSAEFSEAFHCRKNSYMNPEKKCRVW
Procedure: as §1, §2

HMG-CoA reductase = target: T2, HMG-CoA reductase (Homo sapiens, UniProt P04035); assay: Selected enzyme assay; type: biochemical
T2 construct: PanLabs Inc (assay provider)
T2 sequence (P04035 whole entry, species assumed): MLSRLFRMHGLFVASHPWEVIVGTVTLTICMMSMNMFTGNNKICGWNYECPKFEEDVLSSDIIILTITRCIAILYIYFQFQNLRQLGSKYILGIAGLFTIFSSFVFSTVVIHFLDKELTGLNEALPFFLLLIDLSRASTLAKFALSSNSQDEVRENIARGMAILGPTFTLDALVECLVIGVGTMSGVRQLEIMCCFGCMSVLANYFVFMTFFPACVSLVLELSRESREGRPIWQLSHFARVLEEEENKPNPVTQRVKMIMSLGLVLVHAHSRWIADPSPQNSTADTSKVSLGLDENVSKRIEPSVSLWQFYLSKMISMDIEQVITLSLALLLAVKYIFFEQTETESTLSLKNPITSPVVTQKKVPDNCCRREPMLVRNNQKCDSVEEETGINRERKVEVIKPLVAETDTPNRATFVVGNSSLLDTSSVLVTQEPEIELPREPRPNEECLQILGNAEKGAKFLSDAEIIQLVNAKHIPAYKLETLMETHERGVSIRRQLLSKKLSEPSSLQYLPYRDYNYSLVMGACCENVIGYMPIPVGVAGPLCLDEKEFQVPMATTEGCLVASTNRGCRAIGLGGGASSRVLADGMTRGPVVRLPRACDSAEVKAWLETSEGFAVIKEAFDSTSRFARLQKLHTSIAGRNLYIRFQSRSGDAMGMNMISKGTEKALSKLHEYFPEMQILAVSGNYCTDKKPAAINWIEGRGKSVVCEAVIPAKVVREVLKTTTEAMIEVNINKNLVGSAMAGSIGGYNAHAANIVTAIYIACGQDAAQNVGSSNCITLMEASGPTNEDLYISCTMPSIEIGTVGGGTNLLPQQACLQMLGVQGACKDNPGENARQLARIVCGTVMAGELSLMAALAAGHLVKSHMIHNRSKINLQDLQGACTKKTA
Procedure: as §1, §2

cyclooxygenase-I = target: T3, cyclooxygenase-I (Homo sapiens, UniProt P23219); assay: Selected enzyme assay; type: biochemical
T3 construct: PanLabs Inc (assay provider)
T3 sequence (P23219 24-599): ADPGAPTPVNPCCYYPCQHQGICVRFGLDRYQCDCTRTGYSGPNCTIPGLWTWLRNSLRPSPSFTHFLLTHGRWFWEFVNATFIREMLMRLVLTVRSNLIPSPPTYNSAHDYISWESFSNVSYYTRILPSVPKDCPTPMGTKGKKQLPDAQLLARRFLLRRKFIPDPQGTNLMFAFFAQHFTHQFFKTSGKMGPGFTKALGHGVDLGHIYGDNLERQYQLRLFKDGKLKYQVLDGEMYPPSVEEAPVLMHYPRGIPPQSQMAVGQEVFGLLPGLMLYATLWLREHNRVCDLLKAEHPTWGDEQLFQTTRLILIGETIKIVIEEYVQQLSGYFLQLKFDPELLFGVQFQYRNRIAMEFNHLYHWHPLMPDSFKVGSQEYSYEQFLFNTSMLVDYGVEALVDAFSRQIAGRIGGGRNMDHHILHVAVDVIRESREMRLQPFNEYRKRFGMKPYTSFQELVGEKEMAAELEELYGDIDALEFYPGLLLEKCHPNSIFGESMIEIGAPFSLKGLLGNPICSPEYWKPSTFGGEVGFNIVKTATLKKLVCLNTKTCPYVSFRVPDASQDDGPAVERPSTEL
Procedure: as §1, §2

tyrosine hydroxylase = target: T4, tyrosine hydroxylase (Homo sapiens, UniProt P07101); assay: Selected enzyme assay; type: biochemical
T4 construct: PanLabs Inc (assay provider)
T4 sequence (P07101 whole entry): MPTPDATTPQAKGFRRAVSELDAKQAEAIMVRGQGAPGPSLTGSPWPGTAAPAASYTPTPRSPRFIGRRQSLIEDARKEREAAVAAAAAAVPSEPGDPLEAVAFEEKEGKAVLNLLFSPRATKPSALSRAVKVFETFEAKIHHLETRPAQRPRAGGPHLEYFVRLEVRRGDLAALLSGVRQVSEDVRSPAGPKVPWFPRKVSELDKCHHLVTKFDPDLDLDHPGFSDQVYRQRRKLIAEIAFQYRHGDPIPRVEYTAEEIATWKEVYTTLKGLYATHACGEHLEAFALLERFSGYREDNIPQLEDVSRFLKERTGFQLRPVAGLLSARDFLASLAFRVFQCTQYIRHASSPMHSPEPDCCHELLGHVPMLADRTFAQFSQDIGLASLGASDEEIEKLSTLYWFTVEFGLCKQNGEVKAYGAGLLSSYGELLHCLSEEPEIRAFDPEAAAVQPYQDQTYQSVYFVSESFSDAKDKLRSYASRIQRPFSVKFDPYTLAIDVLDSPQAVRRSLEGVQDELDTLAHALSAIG
Procedure: as §1, §2

protein kinase C = assay: Selected enzyme assay; type: biochemical; details: b560 prints protein kinase (non-selective)
Procedure: as §1, §2

[2] = target: Ca2+/calmodulin protein kinase II; assay: Selected enzyme assay; type: biochemical
Procedure: as §1, §2

squirrel monkeys = assay: Safety and tolerability of oral dosing in squirrel monkeys; type: in vivo, squirrel monkeys (Saimiri sciureus); details: 0.5, 2.0, 5.0 mg/kg twice daily for 5 days
Procedure: Twenty-seven (27) mature squirrel monkeys (Saimiri sciureus), sixteen females and eleven males were used for this study. The monkeys were maintained on a 13 h/11 h light-dark cycle, with food and water available ad libitum. All procedures used in this study followed NIH guidelines and were approved by the Institutional Animal Care and Use Committee (IACUC). Animals were individually housed and allowed a minimum of one month to acclimate to the colony prior to commencing behavioral studies. A total of six squirrel monkeys, three non-lesioned and three lesioned (received 2 mg/kg MPTP 3 months prior), were used for these studies. To determine the optimal route of administration of drug nepicastat, three different approaches were examined including (i) insertion into treats, (ii) oral syringe, and (ii) oral gavage. […] (ii) Oral syringe injection of drug (0.5, 2, and 5 mg/kg) into the mouth of three non-lesioned and three lesioned monkeys was also not an acceptable route since animals tended to spit out the solution at the highest drug concentration. (iii) Oral gavage administration was carried out in 3 MPTP-Iesioned monkeys at the highest dose (5 mg/kg) and was well accepted.
A total of six squirrel monkeys, three non-lesioned and three lesioned (received 2 mg/kg MPTP 3 months prior), were used for these studies. […]

[3] = tested on: blood pressure, heart rate, motor activity; assay: Radio-telemetry blood pressure, heart rate, motor activity in normotensive rats, 7 days; type: in vivo, normotensive Wistar rats (Crl:COBS(WI)BR)
Procedure: Male Crl:COBS(WI)BR rats of 15 weeks old were used. Twenty-four rats were chronically implanted with telemetry implants (TA11PA-C40, Data Sciences, Inc., St. Paul, Minn.) for measurement of arterial blood pressure, heart rate and motor activity. The rat was anesthetized with pentobarbital sodium (60 mg/kg, ip) and its abdomen shaved. Under aseptic conditions, an incision was made on midline. The abdominal aorta was exposed, and cannulated with the catheter of a telemetry transmitter unit. After the transmitter was sutured to the abdominal musculature, the skin was closed. Each rat was allowed to recover for at least 2 weeks before being subjected to drug administration. Three days prior to the start of the experiment, the rats were randomly divided into 4 treatment groups: Vehicle (p.o.), Hydralazine (10 mg/kg, p.o.), nepicastat (30 mg/kg, p.o.), nepicastat (100 mg/kg, p.o.).
Systolic blood pressure (SBP), diastolic blood pressure (DBP), mean blood pressure (MBP), heart rate (HR), and motor activity (MA) were monitored. After the pre-dose values for these parameters were established, respective groups of rats received a 7 day daily treatment of vehicle, nepicastat or hydralazine.
Both nepicastat and hydralazine were prepared in water with traces of Tween 80. All doses were given orally to the rat in 10 ml/kg and were expressed as free base equivalents.
A computerized data collection system was used to continuously collect data on SBP, DBP, MBP, HR, and MA. Data on each rat were collected every 5 min. for 10 sec. These were then averaged hourly and standard errors of the mean (SE) calculated. In this report, only data on MBP, HR and MA were presented. […] Body weights were recorded daily.

## Cl.NCc1c[nH]c(=S)n1[C@H]1CCc2c(F)cc(F)cc2C1 [nepicastat, (S)-5-Aminomethyl-1-(5,7-difluoro-1,2,3,4-tetrahydronaphth-2-yl)-2,3-dihydro-2-thioxo-1H-imidazole hydrochloride]
Nitric oxide synthase
  pIC50: < 5.00
[1]
  pIC50: < 5.00
Neutral endopeptidase
  pIC50: < 5.00
HMG-CoA reductase
  pIC50: < 5.00
cyclooxygenase-I
  pIC50: < 5.00
Tyrosine hydroxylase
  pIC50: < 5.00
Protein kinase C
  pIC50: < 5.00
[2]
  pIC50: < 5.00
Squirrel monkeys
  tolerability: well tolerated at the two lower doses
[3]; 30 mg/kg/d po, day 2 at hour 13
  peak decrease in blood pressure (peak hypotensive effect): −10 mmHg
[3]; 100 mg/kg po, 22 hr after dosing
  peak antihypertensive response on day 1: −11 mmHg
[3]; 100 mg/kg, day 2, 3 hours after dosing
  bradycardic response: −100 b/mm
[3]; nepicastat 30 and 100 mg/kg (day 1), hydralazine 10 mg/kg (throughout)
  effect on HR: did not consistently affect HR on day 1
